Measured values as given in patent publication US9416141B2 (University of Washington through its Center for …, priority 2012, dated 2016).
Structures can show the parent of a compound that is named as a salt.

System: hair cells
Assay: Hair cell toxicity assay in zebrafish (neomycin-induced hair cell death, DASPEI staining of neuromasts)
Format: in vivo
Details: Danio rerio; for Emax at 25 µM: maximum observed @ 25 μM test compound; for EC50: zebrafish larvae 5-7 dpf, 1 h pre-treatment, then 200 micromolar neomycin + test compound 30 min, read-out: HC50 (concentration that would produce 50% hair cell survival); for Emax at 2.8 µM: maximum observed @ 2.8 μM test compound; for Emax at 8.3 µM: maximum observed @ 8.3 μM test compound
Experimental: Zebrafish are bred and newly fertilized embryos are collected the week prior and raised at 28.5° C. in petri dishes containing embryo medium. Newly hatched free-swimming larvae are fed paramecium and dry fish food at 4 days post fertilization (dpf) with lights on. For treatment, fish 5-7 dpf are transferred to cell culture baskets and place within a well of a 6-well plate containing 7 milliliters of 1× embryo medium. Typically, tests are done with ten fish per basket but work well with up to 50 fish. All treatment and wash volumes are 7 milliliters. • 1. Fish are pre-treated with test compound for 1 hour. […] Treat with 200 micromolar neomycin (neomycin sulfate, Sigma, St. Louis, Mo., catalog #N1142)+test compound for 30 minutes. • 3. Rinse fish briefly 4 times in embryo medium and add 700 μl of 0.05% DASPEI (2-{4-(dimethylamino)styryl}-N-ethylpyridinium iodide, Molecular Probes, Eugene, Oreg.) and allowed to stain for 15 minutes. • 4. Rinse twice in embryo medium and add 350 μl MS222 (0.55 ug/ml final concentration, 3-aminobenzoic acid ethyl ester, methansulfoneate salt, Sigma, St. Louis, Mo.) to anesthetize. • 5. View with epifluorescence dissecting microscope equipped with a DAPSEI filter set (excitation […], Chroma Technologies, Brattleboro, Vt.). For assessment of initial dose response curves, fish are transferred to wide depression slide with wide-bore pipette. The DASPEI staining of ten neuromasts (SO1, SO2, IO1, IO2, IO3, IO4, M2, MI1, MI2 and O2) on one side of an animal are evaluated. Each neuromast is scored for presence of DASPEI staining (score=2), reduced DASPEI staining (score=1) or absence of DASPEI staining (score=0). Total scores for an animal are tabulated, to give a composite score that can range from 0 to 20. Average scores and standard deviations are calculated for animals in each treatment group. Scores are normalized to control group (vehicle only, no drug, no neomycin) and expressed as % hair cell survival. HCmax is the maximum protection (hair cell survival) observed. • 6. If at least 50% hair cells survive, the HC50 (concentration that would produce 50% hair cell survival) is calculated as a linear extrapolation from the nearest concentrations of protective drug that produce hair cell survival below and above 50%. If less than 50% hair cells survive, the HC50 is not determined. 1× embryo media (standard lab EM): • 1 mM MgSO4, • 0.15 mM KH2PO4, • 0.05 mM Na2HPO4, • 1 mM CaCl2, • 0.5 mM KCl • 15 mM NaCl • 0.7 mM NaHCO3

[1] = 200 micromolar neomycin, read-out: Max HC Protection (HCmax, % hair cell survival)

SMILES	Emax at 25 µM [1]	EC50	other results
C[N+]1(C)C2CCC1c1sc(NC(=O)Nc3ccc(Cl)cc3)c(C(N)=O)c1C2 (racemic) [Example 188, (+/−)-3-Carbamoyl-2-[3-(4-chlorophenyl)ureido]-9,9-dimethyl-5,6,7,8-tetrahydro-4H-thienocyclohepten-5,8-iminium iodide]	59%	1000 to 10000 nM	–
C[N+]12CCCCC1c1sc(NC(=O)Nc3ccc(Cl)cc3)c(C(N)=O)c1CC2 (racemic) [Example 178, (+/−)-3-Carbamoyl-2-[3-(4-chlorophenyl)ureido]-6-methyl-4,5,6,7,8,9,10,10a-octahydrothieno[2,3-a]quinolizin-6-ium chloride]	102%	1000 to 10000 nM	–
NCCN1CCc2c(sc(NC(=O)Nc3ccc(Cl)cc3)c2C(N)=O)C1 [Example 11, 6-(2-Aminoethyl)-2-[3-(4-chlorophenyl)ureido]-4,5,6,7-tetrahydrothieno[2,3-c]pyridine-3-carboxamide dihydrochloride]	68%	1000 to 10000 nM	–
C[N+]1(CCCC(N)=O)CCc2c(sc(NC(=O)Nc3ccc(Cl)cc3)c2C(N)=O)C1 (centres unmarked) [Example 167, 6-(4-Amino-4-oxobutyl)-3-carbamoyl-2-[3-(4-chlorophenyl)ureido]-6-methyl-4,5,6,7-tetrahydrothieno[2,3-c]pyridin-6-ium trifluoroacetate]	–	–	Emax at 2.8 µM [1]: 21%
CC1(CN2CCc3c(sc(NC(=O)Nc4ccc(Cl)cc4)c3C(N)=O)C2)CCC1 [Example 24, 2-[3-(4-Chlorophenyl)ureido]-6-[(1-methylcyclobutyl)methyl]-4,5,6,7-tetrahydrothieno[2,3-c]pyridine-3-carboxamide trifluoroacetate]	–	1000 to 10000 nM	Emax at 2.8 µM [1]: 54%
CCN1CCc2c(sc(NC(=O)Nc3cccc(C#N)c3)c2C(N)=O)C1 [Example 73, 2-[3-(3-Cyanophenyl)ureido]-6-ethyl-4,5,6,7-tetrahydrothieno[2,3-c]pyridine-3-carboxamide hydrochloride]	51%	> 10000 nM	–
CCN1CCc2c(sc(NC(=O)Nc3ccc(C)c(Cl)c3)c2C(N)=O)C1 [Example 83, 2-[3-(3-Chloro-4-methylphenyl)ureido]-6-ethyl-4,5,6,7-tetrahydrothieno[2,3-c]pyridine-3-carboxamide hydrochloride]	63%	1000 to 10000 nM	–
CCN1CCc2sc(NC(=O)Nc3ccc(Cl)cc3)c(C(N)=O)c2CC1 [Example 115, 2-[3-(4-Chlorophenyl)ureido]-6-ethyl-5,6,7,8-tetrahydro-4H-thieno[2,3-d]azepine-3-carboxamide hydrochloride]	99%	1000 to 10000 nM	–
CCN1CCc2c(sc(NC(=O)Nc3ccc(Cl)cc3)c2C(=O)NCC(F)(F)F)C1 [Example 96, 2-[3-(4-Chlorophenyl)ureido]-6-ethyl-N-(2,2,2-trifluoroethyl)-4,5,6,7-tetrahydrothieno[2,3-c]pyridine-3-carboxamide hydrochloride]	–	1000 to 10000 nM	Emax at 8.3 µM [1]: 57%
C#CCCC(=O)NCCCN1CCc2c(sc(NC(=O)Nc3ccc(Cl)cc3)c2C(N)=O)C1 [Example 216, 2-{[(4-chlorophenyl)carbamoyl]amino}-6-[3-(pent-4-ynamido)propyl]-4H,5H,6H,7H-thieno[2,3-c]pyridine-3-carboxamide]	97%	1000 to 10000 nM	–
CCN1CCc2c(sc(NC(=O)Nc3cn(C)c4ccccc34)c2C(N)=O)C1 [Example 82, 6-Ethyl-2-[3-(1-methyl-1H-indol-3-yl)ureido]-4,5,6,7-tetrahydrothieno[2,3-c]pyridine-3-carboxamide hydrochloride]	23%	–	–
CCN1CCc2c(sc(NC(=O)Nc3ccc(CC(=O)OC(C)(C)C)cc3)c2C(N)=O)C1 [Example 30, tert-Butyl 2-{4-[3-(3-carbamoyl-6-ethyl-4,5,6,7-tetrahydrothieno[2,3-c]pyridin-2-yl)ureido]phenyl}acetate]	58%	1000 to 10000 nM	–
NC(=O)c1c(NC(=O)Nc2ccc(Cl)cc2)sc2c1CC1CCC2N1CC1CCCCC1 (racemic) [Example 131, (+/−)-2-[3-(4-chlorophenyl)ureido]-9-(cyclohexylmethyl)-5,6,7,8-tetrahydro-4H-5,8-epiminocyclohepta[b]thiophene-3-carboxamide hydrochloride]	–	< 1000 nM	Emax at 2.8 µM [1]: 88%
CCN1CCc2c(sc(NC(=O)Nc3ccc(Cl)cc3)c2C(=O)NC2COC2)C1 [Example 102, 2-[3-(4-Chlorophenyl)ureido]-6-ethyl-N-(oxetan-3-yl)-4,5,6,7-tetrahydrothieno[2,3-c]pyridine-3-carboxamide]	22%	–	–
C[N+]1(CC2CCC2)CCc2c(sc(NC(=O)Nc3ccc4ccccc4c3)c2C(N)=O)C1 (centres unmarked) [Example 176, 3-Carbamoyl-6-(cyclobutylmethyl)-6-methyl-2-[3-(naphthalen-2-yl)ureido]-4,5,6,7-tetrahydrothieno[2,3-c]pyridin-6-ium iodide]	–	< 1000 nM	Emax at 8.3 µM [1]: 100%
CC(C)(C)OC(=O)CCC[N+]1(CC2CCC2)CCc2c(sc(NC(=O)Nc3ccc(Cl)cc3)c2C(N)=O)C1 (centres unmarked) [Example 199, 6-[4-(tert-Butoxy)-4-oxobutyl]-3-carbamoyl-2-[3-(4-chlorophenyl)ureido]-6-(cyclobutylmethyl)-4,5,6,7-tetrahydrothieno[2,3-c]pyridin-6-ium trifluoroacetate]	–	< 1000 nM	Emax at 0.3 µM (maximum observed @ 0.3 μM test compound, 200 micromolar neomycin, read-out: Max HC Protection (HCmax, % hair cell survival)): 68%
COCCCN1CCc2c(sc(NC(=O)Nc3ccc(Cl)cc3)c2C(N)=O)C1 [Example 3, 2-[3-(4-Chlorophenyl)ureido]-6-(3-methoxypropyl)-4,5,6,7-tetrahydrothieno[2,3-c]pyridine-3-carboxamide hydrochloride]	76%	1000 to 10000 nM	–
CC(C)(C)OC(=O)NCCCN1CCc2c(sc(NC(=O)Nc3ccc(Cl)cc3)c2C(N)=O)C1 [Example 205, tert-butyl N-[3-(3-carbamoyl-2-{[(4-chlorophenyl)carbamoyl]amino}-4H,5H,6H,7H-thieno[2,3-c]pyridin-6-yl)propyl]carbamate]	–	1000 to 10000 nM	Emax at 6.3 µM (maximum observed @ 6.3 μM test compound, 200 micromolar neomycin, read-out: Max HC Protection (HCmax, % hair cell survival)): 81%
CC[N+]1(C)CCc2c(sc(NC(=O)N(C)c3ccc(Cl)cc3)c2C(N)=O)C1 (centres unmarked) [Example 185, 3-Carbamoyl-2-[3-(4-chlorophenyl)-3-methylureido]-6-ethyl-6-methyl-4,5,6,7-tetrahydrothieno[2,3-c]pyridin-6-ium chloride]	–	–	Emax at 2.8 µM [1]: 16%
CC(C)C[N+]1(C)CCc2c(sc(NC(=O)Nc3ccc4ccccc4c3)c2C(N)=O)C1 (centres unmarked) [Example 175, 3-Carbamoyl-6-isobutyl-6-methyl-2-[3-(naphthalen-2-yl)ureido]-4,5,6,7-tetrahydrothieno[2,3-c]pyridin-6-ium iodide]	111%	< 1000 nM	–
NC(=O)c1c(NC(=O)Nc2ccc3ccccc3c2)sc2c1CCN(CC1CCC1)C2 [Example 35, 6-(Cyclobutylmethyl)-2-[3-(naphthalen-2-yl)ureido]-4,5,6,7-tetrahydrothieno[2,3-c]pyridine-3-carboxamide hydrochloride]	–	–	Emax at 2.8 µM [1]: 42%
NC(=O)c1c(NC(=O)Nc2ccc(Cl)cc2)sc2c1CCC(=O)C2 [Example 91, 2-[3-(4-Chlorophenyl)ureido]-6-oxo-4,5,6,7-tetrahydrobenzo[b]thiophene-3-carboxamide]	–	–	Emax at 0.9 µM (maximum observed @ 0.9 μM test compound, 200 micromolar neomycin, read-out: Max HC Protection (HCmax, % hair cell survival)): 15%
CCN1CCc2c(sc(NC(=O)Nc3cncc(Cl)c3)c2C(N)=O)C1 [Example 77, 2-[3-(5-Chloropyridin-3-yl)ureido]-6-ethyl-4,5,6,7-tetrahydrothieno[2,3-c]pyridine-3-carboxamide dihydrochloride]	45%	–	–
CC(C1CCC1)N1CCc2c(sc(NC(=O)Nc3ccc(Cl)cc3)c2C(N)=O)C1 (racemic) [Example 47, (+/−)-2-[3-(4-chlorophenyl)ureido]-6-(1-cyclobutylethyl)-4,5,6,7-tetrahydrothieno[2,3-c]pyridine-3-carboxamide hydrochloride]	–	< 1000 nM	Emax at 2.8 µM [1]: 73%
